Measured values reported in patent US12391737B2, “Soluble NPY2 receptor agonists” (Boehringer Ingelheim International GmbH, priority 2020, dated 2025).

Experiments:
[1] = molecular target: T1, Human Neuropeptide Y2 Receptor (Homo sapiens, UniProt P49146); test: Radioligand binding competition assay (RLB); conditions: Table 3, 125I-PYY(1-36) competition; read-out: Ki
T1 construct: purchased CHEMICON HTS066M
T1 sequence (P49146 1-381): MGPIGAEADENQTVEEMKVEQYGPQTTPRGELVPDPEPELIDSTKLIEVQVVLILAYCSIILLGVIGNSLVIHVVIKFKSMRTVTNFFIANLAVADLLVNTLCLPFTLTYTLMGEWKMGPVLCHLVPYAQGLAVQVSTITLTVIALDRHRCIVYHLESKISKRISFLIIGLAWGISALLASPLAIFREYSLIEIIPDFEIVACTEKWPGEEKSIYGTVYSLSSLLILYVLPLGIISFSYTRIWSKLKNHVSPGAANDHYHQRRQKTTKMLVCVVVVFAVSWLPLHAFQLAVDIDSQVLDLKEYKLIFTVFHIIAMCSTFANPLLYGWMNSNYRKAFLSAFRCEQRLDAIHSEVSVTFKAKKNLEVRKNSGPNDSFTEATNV
Protocol: The filtration RLB assay was carried out in 96-well plates in a final volume of 100 μl per well. Freeze-dried test peptides were dissolved in 100% dimethyl sulfoxide (DMSO) to stock solutions of 1 mM and serial dilutions were performed in assay buffer (50 mM HEPES, 5 mM MgCl2, 1 mM CaCl2, pH 7.4) containing 0.2% ovalbumin. […] Next, 80 μL membranes (HTS066M, ChemiSCREEN™ Human Neuropeptide Y2 Receptor Membrane Preparation, CHEMICON) were added to each well to give a final protein concentration of 0.5 μg/well. The plates were sealed and incubated at room temperature for 2 hours in a plate shaker set at 400 rpm. The incubation was stopped by vacuum filtration onto 0.5% polyethylene amine (PE) presoaked GF/C filters using a 96-well FilterMate™ harvester (Perkin Elmer) followed by four washes with 300 μl/well ice-cold wash buffer (50 mM HEPES, 500 mM NaCl, pH7.4). Filter plates were then dried for 60 min at room temperature and the bottom of the plates was sealed with backing tape UniFilter-96. Finally, 50 μl/well scintillation counter cocktail (Microscint20, Packard) was added and the radioactivity was counted in the Packard TopCount NXT scintillation counter. IC50 values (the half maximal inhibitory concentration of the agonist) were calculated by nonlinear regression analysis of sigmoidal dose-response curves.

Solubility determination = conditions: for Sol6: pH 6; for Sol7: pH 7
Protocol: Peptides (as TFA salts) were weighed out in a filter unit (Mini-UniPrep Syringeless Filter 0.45 μm, Whatman), and 0.1 M sodium diphosphate buffer at pH 6.4 or 7.0 was added to achieve 10 mg/ml final concentration. The peptide was dissolved by shaking the filter unit horizontally at 600 rpm for 2 hours at room temperature. The sample was filtered, to remove any insoluble particles and diluted to 1 mg/ml in 50% acetonitrile. The control was prepared by weighing out the corresponding peptide and dissolving it in 50% acetonitrile to final concentration of 1 mg/ml. Both the control and sample were analysed with reversed phase chromatography. The area under the peak of the sample was compared to the control and the solubility was calculated based on that ratio.
The pH was measured and recorded for each sample.
System: UltiMate 3000 UPLC, ThermoFisher
Mobile phase A: 5% acetonitrile, 95% water, 0.03% trifluoracetic acid.
Mobile phase B: 95% acetonitrile, 5% water, 0.03% trifluoracetic acid.
Gradient: 0-100% mobile phase B (2 mins.)
Column temperature: 50° C.

SMILES | Ki [1] | Sol6 (Solubility determination) | Sol7 (Solubility determination)
CC(C)CC(=O)N[C@@H](C)C(=O)N1CCC[C@H]1C(=O)N[C@@H](CCC(=O)O)C(=O)N[C@@H](CCCCNC(=O)CCCCCNC(=O)CC[C@H](NC(=O)CCCCCCCCCCCCCCCCC(=O)O)C(=O)O)C(=O)N1CCC[C@H]1C(=O)N[C@@H](CCC(=O)O)C(=O)N[C@@H](C)C(=O)N[C@@H](CC(=O)O)C(=O)N[C@@H](C)C(=O)N[C@@H](CO)C(=O)N1CCC[C@H]1C(=O)N[C@@H](CCC(=O)O)C(=O)N[C@@H](CCC(=O)O)C(=O)N[C@@H](CC(C)C)C(=O)N[C@@H](CCC(N)=O)C(=O)N[C@@H](CCCNC(=N)N)C(=O)N[C@@H](Cc1ccc(O)cc1)C(=O)N[C@@H](Cc1ccc(O)cc1)C(=O)N[C@H](C(=O)N[C@@H](CCC(=O)O)C(=O)N[C@@H](CC(C)C)C(=O)N[C@@H](CCCNC(=N)N)C(=O)N[C@@H](Cc1c[nH]cn1)C(=O)N[C@@H](Cc1ccc(O)cc1)C(=O)N[C@@H](Cc1ccc(O)cc1)C(=O)N[C@@H](CC(N)=O)C(=O)N[C@@H](Cc1c[nH]c2ccccc12)C(=O)N[C@@H](CC(C)C)C(=O)N[C@H](C(=O)N[C@@H](CCCNC(=N)N)C(=O)N[C@@H](CCC(N)=O)C(=O)N[C@@H](CCCNC(=N)N)C(=O)N[C@@H](Cc1ccc(O)cc1)C(N)=O)[C@@H](C)O)C(C)C [Compound 171, N{alpha-4}-(3-methylbutanoyl)-N{epsilon-7}-(6-[(4S)-4-carboxy-4-(17-carboxyheptadecanamido)butanamido]hexanoyl)-[4A,7K,9E,10A,18Q,22V,23E,28Y,30W,31L]-hPYY(4-36)] | 2.83 nM | 10.0 mg/mL | 10.0 mg/mL
CC(C)CC(=O)N[C@@H](C)C(=O)N1CCC[C@H]1C(=O)N[C@@H](CCC(=O)O)C(=O)N[C@@H](CCCCNC(=O)CCCCCNC(=O)CC[C@H](NC(=O)CCCCCCCCCCCCCCCCC(=O)O)C(=O)O)C(=O)N1CCC[C@H]1C(=O)N[C@@H](CCC(=O)O)C(=O)N[C@@H](C)C(=O)N[C@@H](CC(=O)O)C(=O)N[C@@H](C)C(=O)N[C@@H](CO)C(=O)N1CCC[C@H]1C(=O)N[C@@H](CCC(=O)O)C(=O)N[C@@H](CCC(=O)O)C(=O)N[C@@H](CC(C)C)C(=O)N[C@@H](CCC(N)=O)C(=O)N[C@@H](CCCNC(=N)N)C(=O)N[C@@H](Cc1ccc(O)cc1)C(=O)N[C@@H](Cc1ccc(O)cc1)C(=O)N[C@H](C(=O)N[C@@H](CCC(N)=O)C(=O)N[C@@H](CC(C)C)C(=O)N[C@@H](CCCNC(=N)N)C(=O)N[C@@H](Cc1c[nH]cn1)C(=O)N[C@@H](Cc1ccc(O)cc1)C(=O)N[C@@H](Cc1ccc(O)cc1)C(=O)N[C@@H](CC(N)=O)C(=O)N[C@@H](Cc1c[nH]c2ccccc12)C(=O)N[C@@H](CC(C)C)C(=O)N[C@H](C(=O)N[C@@H](CCCNC(=N)N)C(=O)N[C@@H](CCC(N)=O)C(=O)N[C@@H](CCCNC(=N)N)C(=O)N[C@@H](Cc1ccc(O)cc1)C(N)=O)[C@@H](C)O)C(C)C [Compound 121, N{alpha-4}-(3-methylbutanoyl)-N{epsilon-7}-(6-[(4S)-4-carboxy-4-(17-carboxyheptadecanamido)butanamido]hexanoyl)-[4A,7K,9E,10A,18Q,22V,23Q,28Y,30W,31L]-hPYY(4-36)] | 1.45 nM | 9.1 mg/mL | 8.9 mg/mL
CC(C)CC(=O)N[C@@H](C)C(=O)N1CCC[C@H]1C(=O)N[C@@H](CCC(=O)O)C(=O)N[C@@H](CCCCNC(=O)CCCCCNC(=O)CC[C@H](NC(=O)CCCCCCCCCCCCCCCCC(=O)O)C(=O)O)C(=O)N1CCC[C@H]1C(=O)N[C@@H](CCC(=O)O)C(=O)N[C@@H](CCC(=O)O)C(=O)N[C@@H](CC(=O)O)C(=O)N[C@@H](C)C(=O)N[C@@H](CCC(=O)O)C(=O)N1CCC[C@H]1C(=O)N[C@@H](CCC(=O)O)C(=O)N[C@@H](CCC(=O)O)C(=O)N[C@@H](CO)C(=O)N[C@@H](CCC(N)=O)C(=O)N[C@@H](CCCNC(=N)N)C(=O)N[C@@H](Cc1ccc(O)cc1)C(=O)N[C@@H](Cc1ccc(O)cc1)C(=O)N[C@H](C(=O)N[C@@H](CO)C(=O)N[C@@H](CC(C)C)C(=O)N[C@@H](CCCNC(=N)N)C(=O)N[C@@H](Cc1c[nH]cn1)C(=O)N[C@@H](Cc1ccc(O)cc1)C(=O)N[C@@H](Cc1ccc(O)cc1)C(=O)N[C@@H](CC(N)=O)C(=O)N[C@@H](Cc1c[nH]c2ccccc12)C(=O)N[C@@H](CC(C)C)C(=O)N[C@H](C(=O)N[C@@H](CCCNC(=N)N)C(=O)N[C@@H](CCC(N)=O)C(=O)N[C@@H](CCCNC(=N)N)C(=O)N[C@@H](Cc1ccc(O)cc1)C(N)=O)[C@@H](C)O)C(C)C [Compound 27, N{alpha-4}-(3-methylbutanoyl)-N{epsilon-7}-(6-[(4S)-4-carboxy-4-(17-carboxyheptadecanamido)butanamido]hexanoyl)[4A,7K,9E,13E,17S,18Q,22V,28Y,30W,31L]-hPYY(4-36)] | 10.5 nM | 9.1 mg/mL | 9.4 mg/mL

Second part, the compound after the results:

Ki [1] | Sol6 (Solubility determination) | Sol7 (Solubility determination) | SMILES
2.07 nM | 8.3 mg/mL | 9.6 mg/mL | CC(C)CC(=O)N[C@@H](C)C(=O)N1CCC[C@H]1C(=O)N[C@@H](C)C(=O)N[C@@H](CCCCNC(=O)CCCCCNC(=O)CC[C@H](NC(=O)CCCCCCCCCCCCCCCCC(=O)O)C(=O)O)C(=O)N1CCC[C@H]1C(=O)N[C@@H](CCC(=O)O)C(=O)N[C@@H](CCC(=O)O)C(=O)N[C@@H](CC(=O)O)C(=O)N[C@@H](C)C(=O)N[C@H](C(=O)N1CCC[C@H]1C(=O)N[C@@H](CCC(=O)O)C(=O)N[C@@H](CCC(=O)O)C(=O)N[C@@H](C)C(=O)N[C@@H](CCC(N)=O)C(=O)N[C@@H](CCCNC(=N)N)C(=O)N[C@@H](Cc1ccc(O)cc1)C(=O)N[C@@H](Cc1ccc(O)cc1)C(=O)N[C@H](C(=O)N[C@@H](CO)C(=O)N[C@@H](CC(C)C)C(=O)N[C@@H](CCCNC(=N)N)C(=O)N[C@@H](Cc1c[nH]cn1)C(=O)N[C@@H](Cc1ccc(O)cc1)C(=O)N[C@@H](Cc1ccc(O)cc1)C(=O)N[C@@H](CC(N)=O)C(=O)N[C@@H](Cc1c[nH]c2ccccc12)C(=O)N[C@@H](CC(C)C)C(=O)N[C@H](C(=O)N[C@@H](CCCNC(=N)N)C(=O)N[C@@H](CCC(N)=O)C(=O)N[C@@H](CCCNC(=N)N)C(=O)N[C@@H](Cc1ccc(O)cc1)C(N)=O)[C@@H](C)O)C(C)C)[C@@H](C)O [Compound 57, N{alpha-4}-(3-methylbutanoyl)-N{epsilon-7}-(6-[(4S)-4-carboxy-4-(17-carboxyheptadecanamido)butanamido]hexanoyl)-[4A,6A,7K,9E,13T,17A,18Q,22V,28Y,30W,31L]-hPYY(4-36)]
5.13 nM | 11.0 mg/mL | 11.0 mg/mL | CC(C)CC(=O)N[C@@H](C)C(=O)N1CCC[C@H]1C(=O)N[C@@H](CCC(=O)O)C(=O)N[C@@H](CCCCNC(=O)CCCCCNC(=O)CC[C@H](NC(=O)CCCCCCCCCCCCCCCCC(=O)O)C(=O)O)C(=O)N1CCC[C@H]1C(=O)N[C@@H](CCC(=O)O)C(=O)N[C@@H](CCC(=O)O)C(=O)N[C@@H](CC(=O)O)C(=O)N[C@@H](C)C(=O)N[C@@H](CCC(=O)O)C(=O)N1CCC[C@H]1C(=O)N[C@@H](CCC(=O)O)C(=O)N[C@@H](CCC(=O)O)C(=O)N[C@H](C(=O)N[C@@H](CCC(N)=O)C(=O)N[C@@H](CCCNC(=N)N)C(=O)N[C@@H](Cc1ccc(O)cc1)C(=O)N[C@@H](Cc1ccc(O)cc1)C(=O)N[C@H](C(=O)N[C@@H](CO)C(=O)N[C@@H](CC(C)C)C(=O)N[C@@H](CCCNC(=N)N)C(=O)N[C@@H](Cc1c[nH]cn1)C(=O)N[C@@H](Cc1ccc(O)cc1)C(=O)N[C@@H](Cc1ccc(O)cc1)C(=O)N[C@@H](CC(N)=O)C(=O)N[C@@H](Cc1c[nH]c2ccccc12)C(=O)N[C@@H](CC(C)C)C(=O)N[C@H](C(=O)N[C@@H](CCCNC(=N)N)C(=O)N[C@@H](CCC(N)=O)C(=O)N[C@@H](CCCNC(=N)N)C(=O)N[C@@H](Cc1ccc(O)cc1)C(N)=O)[C@@H](C)O)C(C)C)[C@@H](C)O [Compound 107, N{alpha-4}-(3-methylbutanoyl)-N{epsilon-7}-(6-[(4S)-4-carboxy-4-(17-carboxyheptadecanamido)butanamido]hexanoyl)-[4A,7K,9E,13E,17T,18Q,22V,28Y,30W,31L]-hPYY(4-36)]
